Experimental data published in the supplement of paper PMC9912026.

Tested on: A375_aEGFR2
Experiment: pERK immunofluorescence normalised to no-drug reference (=1); higher = more ERK phosphorylation (less pathway inhibition)
Settings: drug treatment time 24 h, EGF time 8 h
Experimental: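 A375 CRISPRa-EGFR (A375_aEGFR2) or HT29 cells were treated with two-drug dose combinations (vemurafenib, LY3009120, cobimetinib) for 24 h, then stimulated with EGF (100 ng/mL) or mock medium for 8 h. pERK (T202/Y204) was measured by immunofluorescence as the cytosolic population average, normalised to an untreated no-drug reference of the block (=1). Averages of 2 technical replicates. A375 in 5% FBS, HT29 in 10% FBS.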

CCCS(=O)(=O)Nc1ccc(F)c(C(=O)c2c[nH]c3ncc(-c4ccc(Cl)cc4)cc23)c1F [Vemurafenib] + CNc1ncc2cc(-c3cc(NC(=O)NCCC(C)(C)C)c(F)cc3C)c(C)nc2n1 [LY3009120]
pERK immunofluorescence normalised
Settings	EGF 0 ng/mL	EGF 100 ng/mL
drug A concentration 0 µM, drug B concentration 0.0001 µM	1.02	1.04
drug A concentration 0 µM, drug B concentration 0.000316228 µM	1.03	1.07
drug A concentration 0 µM, drug B concentration 0.001 µM	1.06	1.02
drug A concentration 0 µM, drug B concentration 0.00316228 µM	0.865	0.989
drug A concentration 0 µM, drug B concentration 0.01 µM	0.696	0.807
drug A concentration 0 µM, drug B concentration 0.0316228 µM	0.376	0.565
drug A concentration 0 µM, drug B concentration 0.1 µM	0.193	0.368
drug A concentration 0 µM, drug B concentration 0.316228 µM	0.157	0.264
drug A concentration 0 µM, drug B concentration 1 µM	0.149	0.175
drug A concentration 0 µM, drug B concentration 3.16228 µM	0.153	0.149
drug A concentration 0.000316228 µM, drug B concentration 0 µM	1.03	0.99
drug A concentration 0.000316228 µM, drug B concentration 0.0001 µM	1.03	0.996
drug A concentration 0.000316228 µM, drug B concentration 0.000316228 µM	1.03	1.02
drug A concentration 0.000316228 µM, drug B concentration 0.001 µM	0.876	0.959
drug A concentration 0.000316228 µM, drug B concentration 0.00316228 µM	0.793	0.849
drug A concentration 0.000316228 µM, drug B concentration 0.01 µM	0.488	0.648
drug A concentration 0.000316228 µM, drug B concentration 0.0316228 µM	0.263	0.454
drug A concentration 0.000316228 µM, drug B concentration 0.1 µM	0.168	0.312
drug A concentration 0.000316228 µM, drug B concentration 0.316228 µM	0.151	0.206
drug A concentration 0.000316228 µM, drug B concentration 1 µM	0.15	0.155
drug A concentration 0.000316228 µM, drug B concentration 3.16228 µM	0.15	0.14
drug A concentration 0.001 µM, drug B concentration 0 µM	1	1.02
drug A concentration 0.001 µM, drug B concentration 0.0001 µM	1.01	0.999
drug A concentration 0.001 µM, drug B concentration 0.000316228 µM	0.997	0.982
drug A concentration 0.001 µM, drug B concentration 0.001 µM	0.96	0.953
drug A concentration 0.001 µM, drug B concentration 0.00316228 µM	0.806	0.892
drug A concentration 0.001 µM, drug B concentration 0.01 µM	0.501	0.635
drug A concentration 0.001 µM, drug B concentration 0.0316228 µM	0.278	0.468
drug A concentration 0.001 µM, drug B concentration 0.1 µM	0.168	0.331
drug A concentration 0.001 µM, drug B concentration 0.316228 µM	0.148	0.215
drug A concentration 0.001 µM, drug B concentration 1 µM	0.15	0.156
drug A concentration 0.001 µM, drug B concentration 3.16228 µM	0.149	0.134
drug A concentration 0.00316228 µM, drug B concentration 0 µM	0.995	0.977
drug A concentration 0.00316228 µM, drug B concentration 0.0001 µM	1.05	0.996
drug A concentration 0.00316228 µM, drug B concentration 0.000316228 µM	0.961	1.04
drug A concentration 0.00316228 µM, drug B concentration 0.001 µM	0.922	0.953
drug A concentration 0.00316228 µM, drug B concentration 0.00316228 µM	0.781	0.836
drug A concentration 0.00316228 µM, drug B concentration 0.01 µM	0.534	0.641
drug A concentration 0.00316228 µM, drug B concentration 0.0316228 µM	0.27	0.456
drug A concentration 0.00316228 µM, drug B concentration 0.1 µM	0.167	0.305
drug A concentration 0.00316228 µM, drug B concentration 0.316228 µM	0.145	0.212
drug A concentration 0.00316228 µM, drug B concentration 1 µM	0.15	0.154
drug A concentration 0.00316228 µM, drug B concentration 3.16228 µM	0.149	0.139
drug A concentration 0.01 µM, drug B concentration 0 µM	0.897	0.969
drug A concentration 0.01 µM, drug B concentration 0.0001 µM	0.912	0.967
drug A concentration 0.01 µM, drug B concentration 0.000316228 µM	0.891	0.96
drug A concentration 0.01 µM, drug B concentration 0.001 µM	0.889	0.91
drug A concentration 0.01 µM, drug B concentration 0.00316228 µM	0.732	0.789
drug A concentration 0.01 µM, drug B concentration 0.01 µM	0.471	0.625
drug A concentration 0.01 µM, drug B concentration 0.0316228 µM	0.28	0.469
drug A concentration 0.01 µM, drug B concentration 0.1 µM	0.165	0.311
drug A concentration 0.01 µM, drug B concentration 0.316228 µM	0.15	0.205
drug A concentration 0.01 µM, drug B concentration 1 µM	0.153	0.157
drug A concentration 0.01 µM, drug B concentration 3.16228 µM	0.148	0.138
drug A concentration 0.0316228 µM, drug B concentration 0 µM	0.695	0.896
drug A concentration 0.0316228 µM, drug B concentration 0.0001 µM	0.759	0.9
drug A concentration 0.0316228 µM, drug B concentration 0.000316228 µM	0.727	0.935
drug A concentration 0.0316228 µM, drug B concentration 0.001 µM	0.745	0.852
drug A concentration 0.0316228 µM, drug B concentration 0.00316228 µM	0.669	0.768
drug A concentration 0.0316228 µM, drug B concentration 0.01 µM	0.457	0.635
drug A concentration 0.0316228 µM, drug B concentration 0.0316228 µM	0.251	0.454
drug A concentration 0.0316228 µM, drug B concentration 0.1 µM	0.166	0.319
drug A concentration 0.0316228 µM, drug B concentration 0.316228 µM	0.146	0.216
drug A concentration 0.0316228 µM, drug B concentration 1 µM	0.152	0.156
drug A concentration 0.0316228 µM, drug B concentration 3.16228 µM	0.15	0.138
drug A concentration 0.1 µM, drug B concentration 0 µM	0.453	0.761
drug A concentration 0.1 µM, drug B concentration 0.0001 µM	0.436	0.789
drug A concentration 0.1 µM, drug B concentration 0.000316228 µM	0.465	0.802
drug A concentration 0.1 µM, drug B concentration 0.001 µM	0.482	0.771
drug A concentration 0.1 µM, drug B concentration 0.00316228 µM	0.416	0.719
drug A concentration 0.1 µM, drug B concentration 0.01 µM	0.321	0.61
drug A concentration 0.1 µM, drug B concentration 0.0316228 µM	0.206	0.45
drug A concentration 0.1 µM, drug B concentration 0.1 µM	0.161	0.329
drug A concentration 0.1 µM, drug B concentration 0.316228 µM	0.152	0.229
drug A concentration 0.1 µM, drug B concentration 1 µM	0.151	0.161
drug A concentration 0.1 µM, drug B concentration 3.16228 µM	0.147	0.137
drug A concentration 0.316228 µM, drug B concentration 0 µM	0.252	0.767
drug A concentration 0.316228 µM, drug B concentration 0.0001 µM	0.262	0.764
drug A concentration 0.316228 µM, drug B concentration 0.000316228 µM	0.264	0.746
drug A concentration 0.316228 µM, drug B concentration 0.001 µM	0.292	0.721
drug A concentration 0.316228 µM, drug B concentration 0.00316228 µM	0.295	0.653
drug A concentration 0.316228 µM, drug B concentration 0.01 µM	0.266	0.579
drug A concentration 0.316228 µM, drug B concentration 0.0316228 µM	0.203	0.431
drug A concentration 0.316228 µM, drug B concentration 0.1 µM	0.158	0.293
drug A concentration 0.316228 µM, drug B concentration 0.316228 µM	0.146	0.19
drug A concentration 0.316228 µM, drug B concentration 1 µM	0.149	0.149
drug A concentration 0.316228 µM, drug B concentration 3.16228 µM	0.146	0.137
drug A concentration 1 µM, drug B concentration 0 µM	0.192	0.784
drug A concentration 1 µM, drug B concentration 0.0001 µM	0.185	0.755
drug A concentration 1 µM, drug B concentration 0.000316228 µM	0.191	0.728
drug A concentration 1 µM, drug B concentration 0.001 µM	0.204	0.725
drug A concentration 1 µM, drug B concentration 0.00316228 µM	0.211	0.678
drug A concentration 1 µM, drug B concentration 0.01 µM	0.201	0.598
drug A concentration 1 µM, drug B concentration 0.0316228 µM	0.184	0.467
drug A concentration 1 µM, drug B concentration 0.1 µM	0.159	0.308
drug A concentration 1 µM, drug B concentration 0.316228 µM	0.152	0.195
drug A concentration 1 µM, drug B concentration 1 µM	0.149	0.149
drug A concentration 1 µM, drug B concentration 3.16228 µM	0.152	0.137
drug A concentration 3.16228 µM, drug B concentration 0 µM	0.176	0.761
drug A concentration 3.16228 µM, drug B concentration 0.0001 µM	0.165	0.663
drug A concentration 3.16228 µM, drug B concentration 0.000316228 µM	0.172	0.678
drug A concentration 3.16228 µM, drug B concentration 0.001 µM	0.168	0.701
drug A concentration 3.16228 µM, drug B concentration 0.00316228 µM	0.171	0.649
drug A concentration 3.16228 µM, drug B concentration 0.01 µM	0.169	0.625
drug A concentration 3.16228 µM, drug B concentration 0.0316228 µM	0.165	0.508
drug A concentration 3.16228 µM, drug B concentration 0.1 µM	0.156	0.337
drug A concentration 3.16228 µM, drug B concentration 0.316228 µM	0.145	0.197
drug A concentration 3.16228 µM, drug B concentration 1 µM	0.147	0.15
drug A concentration 3.16228 µM, drug B concentration 3.16228 µM	0.15	0.156
drug A concentration 10 µM, drug B concentration 0 µM	0.164	0.668
drug A concentration 10 µM, drug B concentration 0.0001 µM	0.172	0.644
drug A concentration 10 µM, drug B concentration 0.000316228 µM	0.166	0.629
drug A concentration 10 µM, drug B concentration 0.001 µM	0.167	0.651
drug A concentration 10 µM, drug B concentration 0.00316228 µM	0.171	0.663
drug A concentration 10 µM, drug B concentration 0.01 µM	0.177	0.628
drug A concentration 10 µM, drug B concentration 0.0316228 µM	0.172	0.553
drug A concentration 10 µM, drug B concentration 0.1 µM	0.165	0.335
drug A concentration 10 µM, drug B concentration 0.316228 µM	0.166	0.228
drug A concentration 10 µM, drug B concentration 1 µM	0.157	0.177
drug A concentration 10 µM, drug B concentration 3.16228 µM	0.162	0.153
